The results in this text go back to US8722616B2, “Anti-HIV peptides and methods of use thereof” (priority 2009, dated 2014).

Values after ≈ are worked out from the molar mass of the structure shown. Non-standard residues stand in square brackets, D forms with d. Residues, ends and D or L forms follow the SMILES beside them. No end group written: not given here. Phg = N[C@H](C(=O)O)c1ccccc1

Series [1] is described as follows: Cytotoxicity in the CPE assay (XTT, 50% reduction in cell viability). The note with it: human. The method, then: (§1) Anti-HIV cytopathic effect inhibition assays were conducted as described (Buckheit et al. (1995) Antimicrob. Agents Chemother., 39:2718-2727). In brief, serially diluted peptides were added to a 96-well round bottom microtiter plate in triplicate. CEM-SS cells at a concentration of 2.5×10^3 cells per well and HIV-1IIIB at the appropriate pre-determined titer were sequentially added to the microtiter plate. The cultures were incubated at 5% CO2/37° C. for six days. Following the incubation, the microtiter plates were stained with XTT tetrazolium dye to evaluate the efficacy and toxicity of the test compound(s).
as §1, with “Cytopathic Effect (CPE) Inhibition Assay: The CPE assay was performed” for “Anti-HIV cytopathic effect inhibition assays were conducted”, “as previously” for “as”, “Briefly,” for “In brief,”, “compound was” for “peptides were”

The test system of another series is HIV-1IIIB. In words: microbe, parasite or virus in culture. The method, then: as §1
as §1, with “Cytopathic Effect (CPE) Inhibition Assay: The CPE assay was performed” for “Anti-HIV cytopathic effect inhibition assays were conducted”, “as previously” for “as”, “Briefly,” for “In brief,”, “compound was” for “peptides were”

Another series concerns CEM-SS cells. In words: in vitro. The method, then:
as §1
as §1, with “Cytopathic Effect (CPE) Inhibition Assay: The CPE assay was performed” for “Anti-HIV cytopathic effect inhibition assays were conducted”, “as previously” for “as”, “Briefly,” for “In brief,”, “compound was” for “peptides were”

Where [2] appears, read: Table 5, BMAP-27-derived peptides, CEM-SS cells.
[3] abbreviates: Table 4, LL-37-derived peptides, CEM-SS cells.
Setting [4] is: Table 1, CEM-SS cells, HIV-1IIIB, six days, 50% inhibition of virus replication.
Where [5] appears, read: >100 μg/ml defined as HIV inactive.
Where [6] appears, read: read-out: TC50, Table 3, CEM-SS cells.
Setting [7] is: read-out: TC50, Table 1, CEM-SS cells, six days, 50% reduction in cell viability.

As for `CC[C@H](C)[C@H](NC(=O)[C@H](CCCCN)NC(=O)[C@H](CCCCN)NC(=O)[C@H](Cc1ccccc1)NC(=O)[C@H](CC(C)C)NC(=O)[C@H](CCCCN)NC(=O)[C@H](CCCCN)NC(=O)[C@@H](NC(=O)[C@H](CCCCN)NC(=O)[C@H](CCCCN)NC(=O)[C@H](CCCNC(=N)N)NC(=O)[C@@H](NC(=O)[C@H](CCCNC(=N)N)NC(=O)[C@H](CCCCN)NC(=O)[C@H](Cc1ccccc1)NC(=O)[C@H](CCCNC(=N)N)NC(=O)CN)c1ccccc1)c1ccccc1)C(=O)N[C@@H](CO)C(N)=O` [BMAP-18X6X10, GRFKRXRKKXKKLFKKIS] (H-GRFKR[Phg]RKK[Phg]KKLFKKIS-NH2), in series [1] (CEM-SS cells), the CC50 at 6 days is 10.2 µM. Also, a half-maximal effect with HIV-1IIIB (setting [2]) (EC50) was put at 0.68 µM.

In the series on CEM-SS cells, `CC[C@H](C)[C@H](NC(=O)[C@H](CCCNC(=N)N)NC(=O)[C@H](CCC(N)=O)NC(=O)[C@@H](NC(=O)[C@@H](NC(=O)[C@H](CCCNC(=N)N)NC(=O)[C@H](CCCCN)NC(=O)[C@H](Cc1ccccc1)NC(=O)CN)[C@@H](C)CC)C(C)C)C(=O)N[C@@H](CCCCN)C(=O)N[C@@H](CC(=O)O)C(=O)N[C@@H](Cc1ccccc1)C(=O)N[C@@H](CC(C)C)C(=O)N[C@@H](CCCNC(=N)N)C(=O)N[C@@H](CC(N)=O)C(=O)N[C@@H](CC(C)C)C(=O)N[C@H](C(N)=O)C(C)C` [GF-17] returned a CC50 of 10.8 µM. The molecule also came in with a CC50 at 6 days in series [1] of 8.9 µM. For the same molecule, in series [1] (CEM-SS cells), the CC50 at 144 h stood at 18.7 µg/mL (≈ 8.9 µM).

For `CC[C@@H](C)[C@@H](NC(=O)[C@H](CCCNC(=N)N)NC(=O)[C@H](CCC(N)=O)NC(=O)[C@@H](NC(=O)[C@@H](NC(=O)[C@H](CCCNC(=N)N)NC(=O)[C@H](CCCCN)NC(=O)[C@H](Cc1ccccc1)NC(=O)CN)[C@@H](C)CC)C(C)C)C(=O)N[C@@H](CCCCN)C(=O)N[C@@H](CC(=O)O)C(=O)N[C@@H](Cc1ccccc1)C(=O)N[C@@H](CC(C)C)C(=O)N[C@@H](CCCNC(=N)N)C(=O)N[C@@H](CC(N)=O)C(=O)N[C@@H](CC(C)C)C(=O)N[C@H](C(N)=O)C(C)C` [GF-17d1], the CC50 at 6 days in series [1] (CEM-SS cells) is 22.7 µM. This molecule displayed an EC50 with HIV-1IIIB (setting [3]) of more than 47.5 µM.

Regarding `CC[C@@H](C)[C@@H](NC(=O)[C@H](CCCNC(=N)N)NC(=O)[C@H](CCC(N)=O)NC(=O)[C@@H](NC(=O)[C@@H](NC(=O)[C@H](CCCNC(=N)N)NC(=O)[C@H](CCCCN)NC(=O)[C@H](Cc1ccccc1)NC(=O)CN)[C@@H](C)CC)C(C)C)C(=O)N[C@@H](CCCCN)C(=O)N[C@@H](CC(=O)O)C(=O)N[C@@H](Cc1ccccc1)C(=O)N[C@H](CC(C)C)C(=O)N[C@@H](CCCNC(=N)N)C(=O)N[C@@H](CC(N)=O)C(=O)N[C@@H](CC(C)C)C(=O)N[C@H](C(N)=O)C(C)C` [GF-17d2], the CC50 at 6 days in series [1] (CEM-SS cells) was more than 47.5 µM. Moreover, in the series on HIV-1IIIB (setting [3]), the EC50 was more than 47.5 µM.

With `CC[C@H](C)[C@H](NC(=O)CN)C(=O)N[C@@H](CCCCN)C(=O)N[C@@H](CCC(=O)O)C(=O)N[C@H](C(=O)N[C@@H](CCCCN)C(=O)N[C@@H](CCCNC(=N)N)C(=O)N[C@H](C(=O)N[C@H](C(=O)N[C@@H](CCC(N)=O)C(=O)N[C@@H](CCCNC(=N)N)C(=O)N[C@H](C(=O)N[C@@H](CCCCN)C(=O)N[C@@H](CC(=O)O)C(=O)N[C@@H](Cc1ccccc1)C(=O)N[C@@H](CC(C)C)C(=O)N[C@@H](CCCNC(=N)N)C(=O)N[C@@H](CC(N)=O)C(=O)N[C@@H](CC(C)C)C(=O)N[C@H](C(N)=O)C(C)C)[C@@H](C)CC)C(C)C)[C@@H](C)CC)c1ccccc1` [GI-20X17, GIKEXKRIVQRIKDFLRNLV] (H-GIKE[Phg]KRIVQRIKDFLRNLV-NH2), in series [1] (CEM-SS cells), the CC50 at 6 days is 7.3 µM. Besides, the EC50 in the series on HIV-1IIIB (setting [3]) was more than 40.6 µM.

In turn, FFGKVLKLIRKIF-NH2 [Peptide D76] returned a CC50 at 6 days in series [1] of 6.78 µM. For the same molecule, in the series on HIV-1IIIB (setting [4]), the EC50 turned out to be 0.63 µM.

On to FKRIVQRIKDFLR-NH2 [FK-13], for which, in series [1], the CC50 at 6 days was 10.4 µM. For the same molecule, the EC50 in the series with HIV-1IIIB (setting [5]) amounted to 5.9 µg/mL; in the series on HIV-1IIIB (setting [3]), 3.4 µM.

For “FLFPLITSFLSKVL [Ranatuerin 9, reference compound]”, in series [1], the CC50 stood at 34.6 µM. This molecule registered an EC50 in the series on HIV-1IIIB (1IIIB) of 16.7 µM.

Consider “FRPALIVRTKGTRL [Hyposin-5, reference compound]”, for which the CC50 in series [1] was more than 61.4 µM. The molecule also yielded a half-maximal effective concentration (EC50) in the series with HIV-1IIIB (1IIIB) of more than 61.4 µM.

Consider GFNEIVQDIEDFLQNLV-NH2 [GF17-], for which, in series [1], the CC50 is more than 25.1 µM. The half-maximal effective concentration (EC50) with HIV-1IIIB (1IIIB) is more than 25.1 µM.

GIKEFKREFQRIKDFLRNLV-NH2 [GI-20EF] gave a CC50 at 6 days in series [1] of 9.9 µM. In the series with HIV-1IIIB (setting [3]), this molecule returned an EC50 of 1.6 µM.

Regarding GIKEFKRIVQRIKDFLRNLV-NH2 [GI-20], the CC50 at 6 days in series [1] was determined as 22.7 µM. The same molecule registered an EC50 in the series with HIV-1IIIB (setting [3]) of 1.08 µM.

In series [1], GIKEWKRIVQRIKDFLRNLV-NH2 [GI-20W17] returned a CC50 at 6 days of 23.6 µM. A half-maximal response in the series with HIV-1IIIB (setting [3]) (EC50) required 7.4 µM.

In series [1], GIKQFKRIVQRIKDFLRNLV-NH2 [GI-20Q16] showed a CC50 at 6 days of 13.7 µM. Moreover, the EC50 with HIV-1IIIB (setting [3]) turned out to be 0.91 µM.

In series [1], GRFKRFRKKFKKLFK-NH2 [BMAP-15] gave a CC50 at 6 days of more than 49.6 µM. The same molecule gave an EC50 in the series on HIV-1IIIB (setting [2]) of more than 49.6 µM.

The molecule GRFKRFRKKFKKLFKKIS-NH2 [BMAP-18] had a CC50 at 6 days in series [1] of 8.45 µM. For the same molecule, the EC50 in the series with HIV-1IIIB (setting [5]) came to 0.8 µg/mL; in the series on HIV-1IIIB (setting [2]), 0.35 µM.

GRFKRFRKPFKKLFKKIS-NH2 [BMAP-18P9] yielded a CC50 at 6 days in series [1] of 18.9 µM. Moreover, in the series with HIV-1IIIB (setting [2]), the EC50 came to 3.2 µM.

In turn, GRFKRIRKKLKKLFKKIS-NH2 [BMAP-18I6L10] yielded a CC50 at 6 days in series [1] of 2.79 µM. The same molecule displayed an EC50 in the series with HIV-1IIIB (setting [2]) of more than 44 µM.

For the molecule “ILGPVLGLVSDTLDDVLGIL [Maximin H5, reference compound]”, in the series on CEM-SS cells (setting [6]), the CC50 was more than 49.4 µM. This molecule returned an EC50 with HIV-1IIIB (Table 3, CEM-SS cells) of more than 49.4 µM.

For the molecule ILGPVLGLVSRTLRRVLGIL [Maximin H5r3], the CC50 with CEM-SS cells (setting [6]) stood at 8.7 µM. Moreover, it took 2.2 µM to reach a half-maximal effect in the series with HIV-1IIIB (Table 3, CEM-SS cells) (EC50).

As for “INLKAIAALAKKLL [Mastoparan M, reference compound]”, the CC50 in the series with CEM-SS cells (setting [7]) was more than 67.6 µM. In the series on HIV-1IIIB (setting [4]), this molecule gave an EC50 of more than 67.6 µM.

In the case of “KGRGKQGGKVRAKAKTRSS [Parasin I, reference compound]”, the CC50 with CEM-SS cells (setting [7]) was more than 50 µM. Also, the 50% effective concentration (EC50) with HIV-1IIIB (setting [4]) was more than 50 µM.

With KRIVQRIKDFLR-NH2 [KR-12], the CC50 at 6 days in series [1] is more than 63.5 µM. This molecule also showed a concentration for a half-maximal effect (EC50) in the series with HIV-1IIIB (setting [3]) of more than 63.5 µM.

As to KRIVQRIKDFLRNLVPRTES [KR-20], in series [1], the CC50 at 6 days is more than 40.5 µM.

In series [1], LLGDLLRKSKEKIGKEFKRIVQR-NH2 [LL-23] had a CC50 at 6 days of more than 35.4 µM.

As for “LLGDLLRKSKEKIGKEFKRIVQRIKDFLRNLVPRTES [LL-37, reference compound]”, in series [1], the CC50 at 6 days amounted to 18.4 µM. The EC50 in the series with HIV-1IIIB (setting [5]) stood at 7.3 µg/mL; in the series with HIV-1IIIB (setting [3]), 1.6 µM.

For the molecule “LLKELWTKIKGAGKAVLGKIKGLL [Ponericin L2, reference compound]”, the CC50 in the series on CEM-SS cells (setting [7]) stood at 24.7 µM. Also, in the series on HIV-1IIIB (setting [4]), a half-maximal effect (EC50) was put at 1.4 µM.

Turning to RLFDKIRQVIRKF-NH2 [Retro-FK13], the CC50 at 6 days in series [1] was 33.7 µM. The molecule further registered an EC50 in the series with HIV-1IIIB (setting [3]) of more than 58.1 µM.

As for “RPKHPIKHQGLPQEVLNENLLRF [Isracidin, reference compound]”, the CC50 with CEM-SS cells (setting [7]) was more than 36.2 µM. Moreover, in the series on HIV-1IIIB (setting [4]), the EC50 was more than 36.2 µM.

Turning to “RQRVEELSKFSKKGAAARRRK [Misgurin, reference compound]”, the CC50 in the series with CEM-SS cells (setting [7]) was more than 40 µM. The molecule further showed an EC50 in the series on HIV-1IIIB (setting [4]) of more than 40 µM.

SKEKIGKEFKRIVQRIKDFLR [SK-21] gave a CC50 at 6 days in series [1] (CEM-SS cells) of 22.5 µM. For the same molecule, the “anti-HIV activity in words” value in the series on HIV-1IIIB is “active against HIV”. Also, the EC50 in the series on HIV-1IIIB (setting [5]) came to 28.5 µg/mL; in the series with HIV-1IIIB (setting [3]) it was 10.8 µM.

With SLSRFLRFLKIVYRRAF-NH2 [Peptide D98], the CC50 in the series on CEM-SS cells (setting [7]) worked out at 8.6 µM. In addition, it took 0.83 µM to reach a half-maximal effect in the series on HIV-1IIIB (setting [4]) (EC50).

On to “VDKPDYRPRPRPPNM [Metalnikowin I, reference compound]”, for which, in the series on CEM-SS cells (setting [7]), the CC50 was more than 54.4 µM. Besides, the EC50 in the series on HIV-1IIIB (setting [4]) was more than 54.4 µM.
